# Test results reported in patent publication US20230097253A1, “NOVEL QUINAZOLINE COMPOUND AS THERAPEUTIC AGENT FOR METABOLIC DISORDERS” (BIOWAY., INC, priority 2020, published 2023).
# System: steatosis-induced Huh7 cells
# Assay: Quantitative analysis of mRNA of lipogenesis-related factors (qRT-PCR)
# Format: cell-based
# Conditions: 250 μM PA, 0.5 μM, 24 hours, compared to the control group, FIG. 9-B
# Procedure: To induce steatosis in Huh-7 cells in each well except for control cells, the Huh-7 cells were treated with PA bound to 2% BSA at a concentration of 250 μM except for the control, and the control cells were pretreated with 2% BSA without FA.
# The cells in each well were treated with the compound of Chemical Formula 2 according to the present invention 0.5 μM and then cultured for 24 hours. The control cells and PA treated cells were treated with DMSO. All media were aspirated and the cells were gently washed 3 times with cold PBS.
# Additionally, the total RNA was extracted using the RNeasy RNA isolation kit (Qiagen, Hilden, Germany).
# Additionally, 10 μL of […] per mL of a cell lysis solution was additionally prepared.
# Additionally, the cells were washed twice with cold PBS and 350 μL of RNA lysis buffer was added thereto.
# Additionally, 70% EtOH was added to the lysate in an equal volume, mixed by pipetting, transferred to a spin column, and centrifuged at 8,000×g for 15 seconds.
# Additionally, the flow-through solution was removed and 700 μL of a wash solution was added to the spin column, centrifuged at 8,000×g, and the flow-through solution was removed. […]
# Additionally, RNA concentration was measured at OD 260 nm using the Nanophotometer N60 (Implen, Munich, Germany) […]
compound,measurement,value
"CC(C)C(Nc1ncnc2nc[nH]c12)c1nc2cccc(Cl)c2c(=O)n1-c1ccccc1 (centres unmarked) [BW-3290, 2-(1-((7H-purin-6-yl)amino)-2-methylpropyl)-5-chloro-3-phenylquinazolin-4(3H)-one]",gene expression (mRNA) of FAS,reduced
same,gene expression (mRNA) of SREBP-1c,reduced
